# Experimental data from ChEMBL document CHEMBL5223114, “Design, synthesis and biological evaluation of novel macrocyclic derivatives bearing aniline pyrimidine scaffolds as EGFR-TKIs” (Bioorg Med Chem Lett, 2022).
# What was measured:
# [1] = biological target: Epidermal growth factor receptor (Homo sapiens, UniProt P00533, 746-750DEL/T790M); test: Inhibition of EGFR d746-750/T790M double mutant (unknown origin)
# [2] = biological target: Epidermal growth factor receptor (Homo sapiens, UniProt P00533, L858R/T790M); test: Inhibition of EGFR L858R/T790M double mutant (unknown origin)
# [3] = biological target: Epidermal growth factor receptor (Homo sapiens, UniProt P00533, 746-750DEL/C797S/T790M); test: Inhibition of EGFR d746-750/T790M/C797S triple mutant (unknown origin)
# BaF3 [4] = test: Antiproliferative activity against mouse BaF3 cells harboring EGFR del19/T790M/C797S triple mutant assessed as inhibition of cell growth incubated for 72 hrs by CCK-8 assay; format: functional, cell-based; conditions: BaF3, 72 h
# BaF3 [5] = test: Antiproliferative activity against mouse BaF3 cells harboring EGFR del19/T790M double mutant assessed as inhibition of cell growth incubated for 72 hrs by CCK-8 assay; format: functional, cell-based; conditions: BaF3, 72 h
# Chain of Epidermal growth factor receptor (Homo sapiens, UniProt P00533, L858R/T790M) (P00533 25-1210 T790M/L858R limits assumed): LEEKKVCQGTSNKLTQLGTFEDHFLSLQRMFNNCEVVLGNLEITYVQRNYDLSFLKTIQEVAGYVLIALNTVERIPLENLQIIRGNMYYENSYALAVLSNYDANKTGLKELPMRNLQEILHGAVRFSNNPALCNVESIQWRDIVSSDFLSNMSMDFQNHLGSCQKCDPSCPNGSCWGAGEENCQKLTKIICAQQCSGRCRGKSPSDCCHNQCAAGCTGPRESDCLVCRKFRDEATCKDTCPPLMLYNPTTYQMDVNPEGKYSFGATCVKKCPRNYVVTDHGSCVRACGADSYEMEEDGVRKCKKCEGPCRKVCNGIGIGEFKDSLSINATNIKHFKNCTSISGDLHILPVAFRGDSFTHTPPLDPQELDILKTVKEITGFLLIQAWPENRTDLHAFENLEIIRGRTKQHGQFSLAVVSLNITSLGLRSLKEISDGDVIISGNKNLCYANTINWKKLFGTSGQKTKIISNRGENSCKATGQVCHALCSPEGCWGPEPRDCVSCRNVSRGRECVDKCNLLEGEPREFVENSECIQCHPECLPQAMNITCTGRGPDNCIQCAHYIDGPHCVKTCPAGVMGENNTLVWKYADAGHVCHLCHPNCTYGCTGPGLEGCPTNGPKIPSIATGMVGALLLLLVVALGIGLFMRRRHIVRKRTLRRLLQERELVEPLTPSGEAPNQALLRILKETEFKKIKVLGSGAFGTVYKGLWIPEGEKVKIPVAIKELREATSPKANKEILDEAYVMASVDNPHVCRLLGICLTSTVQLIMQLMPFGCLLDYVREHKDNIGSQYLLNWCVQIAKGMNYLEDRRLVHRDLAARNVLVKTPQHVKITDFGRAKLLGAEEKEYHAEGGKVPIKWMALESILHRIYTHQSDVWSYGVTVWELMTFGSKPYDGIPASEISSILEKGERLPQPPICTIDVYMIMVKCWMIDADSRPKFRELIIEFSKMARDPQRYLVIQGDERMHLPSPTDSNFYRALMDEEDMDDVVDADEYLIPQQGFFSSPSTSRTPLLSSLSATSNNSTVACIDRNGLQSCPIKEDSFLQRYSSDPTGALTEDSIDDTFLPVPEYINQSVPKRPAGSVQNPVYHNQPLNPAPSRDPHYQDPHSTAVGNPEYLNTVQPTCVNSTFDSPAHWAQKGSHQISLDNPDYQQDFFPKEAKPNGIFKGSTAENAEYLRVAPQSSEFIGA
# Chain of Epidermal growth factor receptor (Homo sapiens, UniProt P00533, 746-750DEL/C797S/T790M) (P00533 whole entry, looked up, stated change not applied): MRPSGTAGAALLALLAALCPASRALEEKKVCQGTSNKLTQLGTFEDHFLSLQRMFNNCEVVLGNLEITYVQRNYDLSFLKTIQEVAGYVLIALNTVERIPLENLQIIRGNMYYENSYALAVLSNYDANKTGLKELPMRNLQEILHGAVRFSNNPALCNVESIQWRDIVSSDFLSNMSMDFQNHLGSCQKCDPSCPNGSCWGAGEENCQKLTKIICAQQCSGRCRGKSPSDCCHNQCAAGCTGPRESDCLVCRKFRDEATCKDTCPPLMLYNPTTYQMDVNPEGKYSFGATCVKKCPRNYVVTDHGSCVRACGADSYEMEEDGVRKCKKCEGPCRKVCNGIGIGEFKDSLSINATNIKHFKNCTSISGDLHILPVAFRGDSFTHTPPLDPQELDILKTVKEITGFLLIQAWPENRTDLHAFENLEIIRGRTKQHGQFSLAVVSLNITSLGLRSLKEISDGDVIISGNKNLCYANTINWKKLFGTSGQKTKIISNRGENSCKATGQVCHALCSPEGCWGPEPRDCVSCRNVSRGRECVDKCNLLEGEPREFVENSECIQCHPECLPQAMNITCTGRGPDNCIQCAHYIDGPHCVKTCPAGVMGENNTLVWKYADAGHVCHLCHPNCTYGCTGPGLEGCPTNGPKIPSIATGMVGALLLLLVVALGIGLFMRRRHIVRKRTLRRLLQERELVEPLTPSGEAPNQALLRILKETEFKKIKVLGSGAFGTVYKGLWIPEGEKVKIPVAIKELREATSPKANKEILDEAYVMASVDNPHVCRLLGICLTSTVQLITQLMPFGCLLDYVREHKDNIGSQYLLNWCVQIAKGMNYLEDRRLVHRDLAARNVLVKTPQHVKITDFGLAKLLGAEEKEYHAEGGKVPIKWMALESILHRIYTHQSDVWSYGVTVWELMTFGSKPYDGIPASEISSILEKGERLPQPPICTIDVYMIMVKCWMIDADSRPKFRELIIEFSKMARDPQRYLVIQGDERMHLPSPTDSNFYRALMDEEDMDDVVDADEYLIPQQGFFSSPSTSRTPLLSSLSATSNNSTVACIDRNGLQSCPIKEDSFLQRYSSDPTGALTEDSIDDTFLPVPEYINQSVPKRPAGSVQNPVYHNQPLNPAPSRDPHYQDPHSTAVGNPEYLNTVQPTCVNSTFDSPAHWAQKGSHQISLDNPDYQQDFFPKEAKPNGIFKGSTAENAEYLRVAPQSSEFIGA
# Chain of Epidermal growth factor receptor (Homo sapiens, UniProt P00533, 746-750DEL/T790M) (P00533 whole entry, looked up, stated change not applied): as above
Structure (SMILES),IC50 [1] [nM],IC50 [2] [nM],IC50 [3] [nM],IC50 (BaF3 [4]) [nM],IC50 (BaF3 [5]) [nM]
C=CC(=O)N1CCCCCCCn2cc(c3ccccc32)-c2ccnc(n2)Nc2cc1c(OCCCF)cc2F,2.96,25.7,> 100,–,–
C=CC(=O)N1CCCCCCCCCn2cc(c3ccccc32)-c2ccnc(n2)Nc2cccc1c2,13.2,25.2,> 100,–,–
C=CC(=O)N1CCCCCCCCn2cc(c3ccccc32)-c2ccnc(n2)Nc2cccc1c2,7.03,20.1,86.5,–,–
C=CC(=O)N1CCCCCCCn2cc(c3ccccc32)-c2ccnc(n2)Nc2cc1ccc2F,–,–,–,712,213
C=CC(=O)N1CCCCCCn2cc(c3ccccc32)-c2ccnc(n2)Nc2cccc1c2,–,–,–,839,215
C=CC(=O)Nc1cc(Nc2nccc(-c3cn(C)c4ccccc34)n2)c(OC)cc1N(C)CCN(C)C [OSIMERTINIB],–,–,–,859,33

# More lines, in order of falling IC50 [1], values ahead:
IC50 [1] [nM],IC50 [2] [nM],IC50 [3] [nM],IC50 (BaF3 [4]) [nM],IC50 (BaF3 [5]) [nM],Structure (SMILES)
0.65,10,> 100,867,148,C=CC(=O)N1CCCCCCCn2cc(c3ccccc32)-c2ccnc(n2)Nc2cc1ccc2OC
0.6,13.2,> 100,835,63,C=CC(=O)N1CCCCCCn2cc(c3ccccc32)-c2ccnc(n2)Nc2cc1c(OCCCF)cc2F
0.55,3.45,55.3,811,218,C=CC(=O)N1CCCCCCCn2cc(c3ccccc32)-c2ccnc(n2)Nc2cccc1c2
0.47,8.31,> 100,893,51,C=CC(=O)N1CCCCCCn2cc(c3ccccc32)-c2ccnc(n2)Nc2cc1ccc2OC
0.22,6.49,> 100,695,35,C=CC(=O)N1CCCCCCn2cc(c3ccccc32)-c2ccnc(n2)Nc2cc1ccc2F
